Test results: US20110009624A9, “BENZIMIDAZOLE COMPOUNDS HAVING GASTRIC ACID SECRETION INHIBITORY ACTION” (priority 2006, published 2011)

Columns and labels:
[1] = tested on: gastric acid secretion (histamine-stimulated); experiment: Gastric acid secretion inhibitory effects in dogs fitted with chronic gastric fistula tube; type: in vivo; settings: for Gastric acid secretion inhibitory action (%) / Duration of gastric acid secretion inhibitory action (%): dogs with chronic gastric fistula tube, histamine i.v., 1.6 mg/kg i.d.; for Gastric acid secretion inhibitory action (%): day 1 (1 h 40 min to 2 h after administration); for Duration of gastric acid secretion inhibitory action (%): day 2 (24 hours after administration); for gastric acid secretion inhibitory action and duration of gastric acid secretion inhibitory action (assessment in words): on the basis of Table 1
Protocol: Gastric Acid Secretion Inhibitory Effects in Dogs Fitted with Chronic Gastric Fistula Tube
The gastric acid secretion inhibitory and duration of gastric acid secretion inhibitory action of compounds of the examples were assessed using large dogs fitted with a chronic gastric fistula tube (body weights: approx. 14 to 19 kg). The experiment was conducted for 2 days. On the first day, gastric juices were collected every 20 minutes under conditions of continuous intravenous administration of histamine (50 or 75 μg/kg/h) for 3 hours. A compound of the examples dissolved or suspended in 0.5% methyl cellulose solution was administered via a catheter implanted in the duodenum at the rate of 0.1 ml/kg one hour after the start of histamine administration. The gastric acid secretion inhibitory action of the compound of the examples was assessed over the next two hours. On the second day (24 hours after administration of the compound of the examples), gastric juices were collected every 20 minutes under conditions of continuous intravenous administration of histamine for 2 hours followed by assessment of the duration of gastric acid secretion inhibitory action. After measuring the amount of gastric juices, 0.5 ml of gastric juice were sampled and titrated to neutrality to a pH of 7.0 with 0.04 mol/L aqueous sodium hydroxide solution to measure acid concentration. The amount of gastric acid discharged was determined by multiplying the amount of gastric juice by the acid concentration. Gastric acid secretion inhibitory action was evaluated as the rate of gastric acid secretion inhibition (%) on day 1. Gastric acid secretion inhibitory action (%) was determined according to the formula indicated below:
Gastric acid secretion inhibitory action (%)=(A−B)/A×100
[A]: amount of gastric acid discharged for 20 minutes from 40 minutes to 1 hour after the start of administration of histamine
[B]: amount of gastric acid discharged for 20 minutes from 1 hour 40 minutes to 2 hours after the start of administration of the compound of the examples.
The duration of gastric acid secretion inhibitory action was evaluated as the rate of gastric acid secretion inhibition (%) on day 2. The duration of gastric acid secretion inhibitory action (%) was determined according to the formula indicated below:
Duration of gastric acid secretion inhibitory action (%)=(C−D)/C×100
[C]: Total amount of gastric acid discharged from start of administration of histamine on day 1 to one hour later
[D]: Total amount of gastric acid discharged from start of administration of histamine on day 2 to one hour later.

H+, K+-ATPase = target: T1, H+, K+-ATPase (Sus scrofa, UniProt P19156); experiment: H+, K+-ATPase activity inhibitory action; type: biochemical; settings: hog gastric mucosa enzyme, preincubation 30 minutes at 37° C., pH 6.1
T1 construct: H^+, K^+-ATPase was prepared from a fundic gland area of fresh hog gastric mucosa; from tissue; host or cells: fundic gland area of fresh hog gastric mucosa
T1 sequence (P19156 whole entry): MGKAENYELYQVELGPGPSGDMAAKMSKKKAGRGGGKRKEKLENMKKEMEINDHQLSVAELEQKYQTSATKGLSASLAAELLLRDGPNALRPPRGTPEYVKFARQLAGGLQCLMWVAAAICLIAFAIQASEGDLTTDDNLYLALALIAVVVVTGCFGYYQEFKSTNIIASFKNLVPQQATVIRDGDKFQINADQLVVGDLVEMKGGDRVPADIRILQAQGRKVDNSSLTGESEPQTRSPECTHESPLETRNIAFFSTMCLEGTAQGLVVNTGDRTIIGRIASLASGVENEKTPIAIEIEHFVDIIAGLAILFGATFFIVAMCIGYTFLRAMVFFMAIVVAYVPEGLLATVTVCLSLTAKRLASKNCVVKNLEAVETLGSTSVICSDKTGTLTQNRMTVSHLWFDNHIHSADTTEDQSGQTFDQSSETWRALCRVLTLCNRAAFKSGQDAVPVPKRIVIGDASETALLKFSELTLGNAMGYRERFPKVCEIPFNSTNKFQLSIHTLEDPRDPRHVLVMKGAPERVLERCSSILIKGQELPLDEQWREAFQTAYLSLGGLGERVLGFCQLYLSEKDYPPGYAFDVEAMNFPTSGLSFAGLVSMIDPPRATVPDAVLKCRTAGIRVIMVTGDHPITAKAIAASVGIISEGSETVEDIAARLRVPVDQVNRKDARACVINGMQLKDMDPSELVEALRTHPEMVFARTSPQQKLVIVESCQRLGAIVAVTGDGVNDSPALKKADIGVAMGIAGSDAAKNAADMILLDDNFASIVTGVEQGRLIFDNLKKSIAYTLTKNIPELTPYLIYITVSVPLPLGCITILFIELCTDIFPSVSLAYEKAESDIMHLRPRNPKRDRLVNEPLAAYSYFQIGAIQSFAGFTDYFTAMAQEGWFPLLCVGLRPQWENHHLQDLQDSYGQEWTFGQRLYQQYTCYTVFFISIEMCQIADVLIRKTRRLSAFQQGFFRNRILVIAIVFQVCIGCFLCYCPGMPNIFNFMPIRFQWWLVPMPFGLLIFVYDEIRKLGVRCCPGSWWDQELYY
T1 sequence (P18434 whole entry partner): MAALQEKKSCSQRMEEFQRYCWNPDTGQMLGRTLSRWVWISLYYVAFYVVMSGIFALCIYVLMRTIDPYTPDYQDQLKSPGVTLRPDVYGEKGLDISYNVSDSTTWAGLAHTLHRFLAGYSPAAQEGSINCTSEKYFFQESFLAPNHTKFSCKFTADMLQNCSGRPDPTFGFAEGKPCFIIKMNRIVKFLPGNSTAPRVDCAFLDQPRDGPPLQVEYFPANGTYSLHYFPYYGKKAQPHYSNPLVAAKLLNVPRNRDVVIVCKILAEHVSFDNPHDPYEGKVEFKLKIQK
Protocol: H^+, K^+-ATPase Activity Inhibitory Action
H^+, K^+-ATPase was prepared from a fundic gland area of fresh hog gastric mucosa using a variation of the Chang's method [Biochim. Biophys. Acta 464, 313 (1977)].
(1) The sodium salt of 2-[[[4-[3-hydroxy-2-(hydroxymethyl)propoxy]-3,5-dimethylpyridin-2-yl]methyl]sulfinyl]-1H-benzimidazole (Example 15) and (2) 3-[3-hydroxy-2-(hydroxymethyl)propoxy]-2,4-dimethyl-5H-pyrido[1′,2′,4,5][1,2,4]thiadiazino[2,3-a]benzimidazolium hexafluorophosphate (Example 16) were selected for the test compounds, and each was used after dissolving in methanol.
10 μL aliquots of various concentrations of the test compounds or solvent were mixed into 200 μL of 50 μg/mL H^+, K^+-ATPase, 100 μL of 10 mmol/L Pipes-Tris (pH 6.1) and 190 μL of distilled water followed by incubating for 30 minutes at 37° C., adding 150 μL of 100 mmol/L KCl (or distilled water) and 10 μL of 100 μg/mL gramicidin, and further incubating for 10 minutes. […] The amount of inorganic phosphoric acid that was released during this 10 minute period was measured in compliance with the method of Yoda and Hokin (Biochem. Biophys. Res. Commun., 40, 880, 1970). […]
Residual enzyme activity at each concentration of test compound was determined as the amount of H^+, K^+-ATPase activity as a percentage of the H^+, K^+-ATPase activity of a control group (solvent addition). […]

Row | SMILES | Gastric acid secretion inhibitory action (%) [1] | Duration of gastric acid secretion inhibitory action (%) [1] | gastric acid secretion inhibitory action and duration of gastric acid secretion inhibitory action (assessment in words) [1] | IC50 (H+, K+-ATPase)
1 | Cc1c(OCCCC2COC3(CCC3)O2)ccnc1C[S+]([O-])c1nc2ccccc2[n-]1.[Na+] (stereo not shown) [Example 9, 2-[[[4-[3-(5,8-dioxaspiro[3.4]octa-6-yl)propoxy]-3-methylpyridin-2-yl]methyl]sulfinyl]-1H-benzimidazole] | 100% | 89% | satisfactory | –
2 | Cc1c(OCCC2COC3(CCOCC3)O2)ccnc1C[S+]([O-])c1nc2ccccc2[n-]1.[Na+] (stereo not shown) [Example 13, 2-[[[3-methyl-4-[2-(1,4,8-trioxaspiro[4.5]deca-2-yl)ethoxy]pyridin-2-yl]methyl]sulfinyl]-1H-benzimidazole] | 100% | 84% | satisfactory | –
3 | Cc1c[n+]2c(c(C)c1OCC(CO)CO)CSn1c-2nc2ccccc21 [Example 16, 3-[3-Hydroxy-2-(hydroxymethyl)propoxy]-2,4-dimethyl-5H-pyrido[1′,2′,4,5][1,2,4]thiadiazino[2,3-a]benzimidazolium hexafluorophosphate] | – | – | – | 0.22 µM
